Assay type in all cases: cell-based
What all share (set-up): expressed in transfected cells; host or cells: HEK293 cells transfected with VIPR2 in pCDNA3.1 (as described)

The target in assay [1] is T1, VIPR2 (Homo sapiens, UniProt P41587).
T1 sequence (P41587 24-438): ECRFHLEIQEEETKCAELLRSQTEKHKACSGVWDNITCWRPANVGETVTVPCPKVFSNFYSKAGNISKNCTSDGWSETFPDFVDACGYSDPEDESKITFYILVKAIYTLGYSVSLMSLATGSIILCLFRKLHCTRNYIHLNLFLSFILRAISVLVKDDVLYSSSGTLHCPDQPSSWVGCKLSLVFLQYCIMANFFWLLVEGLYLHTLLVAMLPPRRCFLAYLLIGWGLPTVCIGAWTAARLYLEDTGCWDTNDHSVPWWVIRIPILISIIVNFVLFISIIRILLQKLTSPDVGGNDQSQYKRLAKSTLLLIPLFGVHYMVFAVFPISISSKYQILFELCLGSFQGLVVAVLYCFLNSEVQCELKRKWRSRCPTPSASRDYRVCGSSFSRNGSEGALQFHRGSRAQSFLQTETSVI
In words: % Activity: inhibition of VIP-induced cAMP elevation and β-arrestin recruitment (Table 2). The gist of the method:
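cAMP: HEK293 stably expressing hVIPR2, inhibitor plus VIP 30 min, cAMP by HTRF (665/620 nm ratio ×10,000). β-arrestin: HEK293 with β-arrestin2-β-gal-EA, transiently transfected with VIPR2-ProLink; inhibitor 2 h at 37° C, enzyme complementation read by luminescence.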

Assay [2] has as its target T1, VIPR2. In words: Inhibition of VIP-induced cAMP elevation (% Activity cAMP). The conditions noted are these: Batch 2. The gist of the method: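 HEK293 cells stably transfected with human VIPR2 were incubated with inhibitor and VIP for 30 min, then cAMP was detected by HTRF after at least 1 h at room temperature. The 665/620 nm ratio ×10,000 was calculated.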
The target of assay [3] is T1, VIPR2. Briefly: Inhibition of VIP-induced β-arrestin recruitment (% Activity Arrestin). Particulars: Batch 2. In short, it runs like this:
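HEK293 cells stably expressing β-arrestin2–β-gal EA, transiently transfected with ProLink-tagged hVIPR2, plated overnight; inhibitor added for 2 h at 37 °C, 5% CO2. Receptor–arrestin complementation read by chemiluminescence after 5 min–1 h at room temperature; inhibition of VIP-induced recruitment reported as % activity.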
A general note: Recruitment of arrestin is a read-out of receptor activation apart from second messengers.

One may read the inhibition as the relative decrease from the control value, in per cent.

The structures appear in SMILES notation.

For the molecule `CC1CCC(NC(=O)[C@@H](Cc2ccccc2)C[C@H](O)CNS(=O)(=O)c2ccc([N+](=O)[O-])cc2)CC1` (stereo partly drawn) [Compound B8B], on VIPR2 [1], the “% Activity” value is reported as 2.15%. Moreover, on VIPR2 [2], the inhibition at 0.5 µM is -0.7%, the inhibition at 1 µM worked out at 9.5% and the inhibition at 5 µM is 5.1%. Besides, on VIPR2 [3], the inhibition at 0.5 µM turned out to be 5.7%, the inhibition at 1 µM was -0.4% and the inhibition at 5 µM is -0.8%.

As for `O=C([C@H](Cc1ccccc1)C[C@H](O)CNS(=O)(=O)c1ccc([N+](=O)[O-])cc1)N1CCOCC1` [Compound B9A], on VIPR2 [1], the “% Activity” value was determined as 0.6%. Further, at VIPR2 [2], the inhibition at 0.5 µM was -3.8%, the inhibition at 1 µM is -1.6% and the inhibition at 5 µM stood at 2.4%. On VIPR2 [3], the inhibition at 0.5 µM is -4.3%, the inhibition at 1 µM worked out at 8.9% and the inhibition at 5 µM was -1.2%.

Consider `O=C([C@@H](Cc1ccccc1)C[C@H](O)CNS(=O)(=O)c1ccc([N+](=O)[O-])cc1)N1CCOCC1` [Compound B9B], for which, at VIPR2 [1], the “% Activity” value was determined as 1.65%. In addition, at VIPR2 [2], the inhibition at 0.5 µM is -5.8%, the inhibition at 1 µM was 10.4% and the inhibition at 5 µM turned out to be 3%. For the same molecule, on VIPR2 [3], the inhibition at 0.5 µM was 7%, the inhibition at 1 µM was -13% and the inhibition at 5 µM came to 0.3%.

On to `C[C@H](CC(C)(C)C)NC(=O)[C@H](Cc1ccccc1)C[C@H](O)CNS(=O)(=O)c1ccc([N+](=O)[O-])cc1` [Compound B10A], for which the “% Activity” value at VIPR2 [1] is −5.2%. Also, at VIPR2 [2], the inhibition at 0.5 µM is -7.9%, the inhibition at 1 µM is 4.4% and the inhibition at 5 µM was -0.1%. Besides, at VIPR2 [3], the inhibition at 0.5 µM is 23.3%, the inhibition at 1 µM turned out to be 3% and the inhibition at 5 µM is -10.3%.

`C[C@H](CC(C)(C)C)NC(=O)[C@@H](Cc1ccccc1)C[C@H](O)CNS(=O)(=O)c1ccc([N+](=O)[O-])cc1` [Compound B10B]: on VIPR2 [1], the “% Activity” value is listed as 13.8000%. For the same molecule, on VIPR2 [2], the inhibition at 0.5 µM amounted to 6.5%, the inhibition at 1 µM was 19.6% and the inhibition at 5 µM was determined as 7.4%. Besides, on VIPR2 [3], the inhibition at 0.5 µM turned out to be 36.8%, the inhibition at 1 µM amounted to 27.9% and the inhibition at 5 µM stood at 20.2%.

Turning to `NC(=O)[C@H](Cc1ccccc1)C[C@H](O)CNS(=O)(=O)c1ccc([N+](=O)[O-])cc1` [Compound B12A], the “% Activity” value on VIPR2 [1] is on record as −10.45%. At VIPR2 [2], the inhibition at 0.5 µM is 6.7%, the inhibition at 1 µM was 3.6% and the inhibition at 5 µM worked out at 2.1%. Moreover, at VIPR2 [3], the inhibition at 0.5 µM is -6.5%, the inhibition at 1 µM is -16.6% and the inhibition at 5 µM is -23%.

As to `NC(=O)[C@@H](Cc1ccccc1)C[C@H](O)CNS(=O)(=O)c1ccc([N+](=O)[O-])cc1` [Compound B12B], the “% Activity” value at VIPR2 [1] is 8.35%. At VIPR2 [2], the inhibition at 0.5 µM is 14.6%, the inhibition at 1 µM was found to be 12.6% and the inhibition at 5 µM was 9.7%. Also, at VIPR2 [3], the inhibition at 0.5 µM turned out to be 3.5%, the inhibition at 1 µM was -9.8% and the inhibition at 5 µM stood at 7%.

Turning to `O=C(NC1CCCc2ccccc21)[C@H](Cc1ccccc1)C[C@H](O)CNS(=O)(=O)c1ccc([N+](=O)[O-])cc1` (stereo partly drawn) [Compound B13A], on VIPR2 [1], the “% Activity” value came to 13.85%. Moreover, on VIPR2 [2], the inhibition at 0.5 µM was 8.8%, the inhibition at 1 µM stood at 12.4% and the inhibition at 5 µM came out at 17.5%. Moreover, at VIPR2 [3], the inhibition at 0.5 µM was found to be 3.3%, the inhibition at 1 µM is 7.4% and the inhibition at 5 µM worked out at 10.2%.

In the case of `O=C(NC1CCCc2ccccc21)[C@@H](Cc1ccccc1)C[C@H](O)CNS(=O)(=O)c1ccc([N+](=O)[O-])cc1` (stereo partly drawn) [Compound B13B], the “% Activity” value at VIPR2 [1] stood at 9.0000%. Moreover, at VIPR2 [2], the inhibition at 0.5 µM amounted to 5.1%, the inhibition at 1 µM turned out to be 6.6% and the inhibition at 5 µM is 17.4%. Moreover, at VIPR2 [3], the inhibition at 0.5 µM amounted to 4.8%, the inhibition at 1 µM came out at 6.9% and the inhibition at 5 µM was determined as 0.6%.

As to `O=C(NCc1ccc(F)cc1F)[C@H](Cc1ccccc1)C[C@H](O)CNS(=O)(=O)c1ccc([N+](=O)[O-])cc1` [Compound B14A], on VIPR2 [1], the “% Activity” value is listed as 27.2000%. Besides, on VIPR2 [2], the inhibition at 0.5 µM worked out at 2.4%, the inhibition at 1 µM stood at 7.2% and the inhibition at 5 µM came to 23.6%. Besides, on VIPR2 [3], the inhibition at 0.5 µM is -19.5%, the inhibition at 1 µM is -13.3% and the inhibition at 5 µM was 30.8%.

Consider `O=C(NCc1ccc(F)cc1F)[C@@H](Cc1ccccc1)C[C@H](O)CNS(=O)(=O)c1ccc([N+](=O)[O-])cc1` [Compound B14B], for which the “% Activity” value on VIPR2 [1] is 21.1000%. Also, at VIPR2 [2], the inhibition at 0.5 µM was -5.4%, the inhibition at 1 µM amounted to 4.7% and the inhibition at 5 µM turned out to be 18.2%. On VIPR2 [3], the inhibition at 0.5 µM was 23.9%, the inhibition at 1 µM is 20% and the inhibition at 5 µM was 24%.

As for `CCN(CC)C(=O)[C@H](Cc1ccccc1)C[C@H](O)CNS(=O)(=O)c1ccc([N+](=O)[O-])cc1` [Compound B15A], at VIPR2 [1], the “% Activity” value was 0.7%. Besides, at VIPR2 [2], the inhibition at 0.5 µM is -8.1%, the inhibition at 1 µM is -6.1% and the inhibition at 5 µM is -4.3%. For the same molecule, on VIPR2 [3], the inhibition at 0.5 µM is -5.4%, the inhibition at 1 µM came out at 7.9% and the inhibition at 5 µM was determined as 5.7%.

In the case of `CCN(CC)C(=O)[C@@H](Cc1ccccc1)C[C@H](O)CNS(=O)(=O)c1ccc([N+](=O)[O-])cc1` [Compound B15B], the “% Activity” value on VIPR2 [1] is −6.6%. On VIPR2 [2], the inhibition at 0.5 µM was determined as 0.5%, the inhibition at 1 µM is -8.4% and the inhibition at 5 µM was -10.5%. Also, on VIPR2 [3], the inhibition at 0.5 µM is -3.6%, the inhibition at 1 µM amounted to 1.2% and the inhibition at 5 µM is -2.7%.

Take `CCNC(=O)[C@H](Cc1ccccc1)C[C@H](O)CNS(=O)(=O)c1ccc([N+](=O)[O-])cc1` [Compound B16A]: the “% Activity” value on VIPR2 [1] is reported as −9.25%. In addition, at VIPR2 [2], the inhibition at 0.5 µM is -7.1%, the inhibition at 1 µM is -0.4% and the inhibition at 5 µM is -6.2%. Besides, at VIPR2 [3], the inhibition at 0.5 µM came out at 15.2%, the inhibition at 1 µM turned out to be 0.1% and the inhibition at 5 µM was -12.3%.

As for `CCNC(=O)[C@@H](Cc1ccccc1)C[C@H](O)CNS(=O)(=O)c1ccc([N+](=O)[O-])cc1` [Compound B16B], the “% Activity” value at VIPR2 [1] is recorded as −14.9%. In addition, on VIPR2 [2], the inhibition at 0.5 µM is -13.2%, the inhibition at 1 µM was -0.9% and the inhibition at 5 µM was -22.2%. Moreover, at VIPR2 [3], the inhibition at 0.5 µM was -10%, the inhibition at 1 µM was found to be 6% and the inhibition at 5 µM was -7.6%.

In the case of `O=C([C@H](Cc1ccccc1)C[C@H](O)CNS(=O)(=O)c1ccc([N+](=O)[O-])cc1)N1CCCCC1` [Compound B18A], on VIPR2 [1], the “% Activity” value is reported as −1.15%. In addition, at VIPR2 [2], the inhibition at 0.5 µM is -4.8%, the inhibition at 1 µM is -4.8% and the inhibition at 5 µM amounted to 0.5%. On VIPR2 [3], the inhibition at 0.5 µM is -10.2%, the inhibition at 1 µM is -11.5% and the inhibition at 5 µM was -2.8%.

Take `O=C([C@@H](Cc1ccccc1)C[C@H](O)CNS(=O)(=O)c1ccc([N+](=O)[O-])cc1)N1CCCCC1` [Compound B18B]: at VIPR2 [1], the “% Activity” value was determined as 12.15%. For the same molecule, on VIPR2 [2], the inhibition at 0.5 µM stood at 14.2%, the inhibition at 1 µM was found to be 14.2% and the inhibition at 5 µM came out at 9.4%. For the same molecule, on VIPR2 [3], the inhibition at 0.5 µM came to 0.5%, the inhibition at 1 µM came to 9.2% and the inhibition at 5 µM was determined as 14.9%.

Consider `O=C([C@H](Cc1ccccc1)C[C@H](O)CNS(=O)(=O)c1ccc([N+](=O)[O-])cc1)N1CCC(CO)CC1` [Compound B19], for which the “% Activity” value on VIPR2 [1] was 0.85%. Besides, on VIPR2 [2], the inhibition at 0.5 µM is 2.1%, the inhibition at 1 µM amounted to 4.4% and the inhibition at 5 µM is 6.2%. On VIPR2 [3], the inhibition at 0.5 µM is -8.4%, the inhibition at 1 µM was -17.8% and the inhibition at 5 µM was -4.5%.
